Experimental findings from patent US12492184B2, “Heteroaryl compounds, preparation methods and uses thereof” (InventisBio Co., Ltd., priority 2020, dated 2025) are described below.

A value given as a limit tells only on which side of the number the result lay.

The first assay deals with HEK-Blue IL23 Reporter. Kind of assay: HEK-Blue IL-23 STAT3 Reporter Assay. Conditions: HEK-Blue IL23 cells stimulated with IL-23 overnight; SEAP read with QUANTI-Blue at OD655. Type of assay: cell-based, human. The procedure: HEK-Blue IL23 cells (InvivoGen catalog #HKB-IL23) are designed for the detection of bioactive IL-23 by monitoring the activation of the STAT3 pathway. They were generated by stably introducing the genes for the human IL-23 receptor, STAT3, and the SEAP (secreted embryonic alkaline phosphatase) reporter gene into human HEK293 cell line.
Briefly, around 50,000 cells in DMEM medium supplemented with 10% heat inactivated FBS (˜180 ul) were seeded into each well and incubate for 48 hours at 37° C. with 5% CO2 in air. On day 3, one microliter of compound and 20 ul IL-23 were transferred to the assay plate respectively. The plate was left in the 37° C. incubator overnight. Two microliter of cell supernatant was transferred to a 384-well plate, and 18 ul of resuspended QUANTI-Blue solution was added to each well. SLAP levels were determined using Tecan Spark at OD655.
Cells with no IL23 added were used as Low control. Cells stimulated with IL23 were used as High control. Inhibition rate was calculated with the formula of % inhibition=100*(High control−Treated Well)/(High Control−Low control). IL-23 reporter assay inhibition IC50 was calculated with the equation of Y=Bottom+(Top-Bottom)/(1+10^((Log IC50−X)*HillSlope)).
In general terms: In a reporter assay the amount or activity of a reporter protein is the signal.
For the compound `[2H]C([2H])([2H])NC(=O)c1nnc(NC(=O)[C@H]2CC23CC3)cc1Nc1nccc2c1S(C)(=O)=NC2` (stereo partly shown) [Compound 129], the IC50 (as a rule, the concentration at which inhibition is half-maximal) came out at 0.4 nM.

Staying with this assay, now noted: Homo sapiens, HEK-Blue IL-23, HEK-Blue IL23 cells stimulated with IL-23 overnight; SEAP read with QUANTI-Blue at OD655.
`[2H]C([2H])([2H])NC(=O)c1cnc(NC(=O)C2CC2)cc1Nc1ncc(OC(C)C)cc1S(C)(=O)=O` [Compound 81] registered an IC50 of 0.9 nM. That is a sub-nanomolar value.
`[2H]C([2H])([2H])NC(=O)c1nnc(NC(=O)[C@H]2CC23CC3)cc1Nc1ncc(N2CCOC[C@H]2C)cc1S(C)(=O)=O` [Compound 121] showed an IC50 of 1.2 nM.
`[2H]C([2H])([2H])NC(=O)c1nnc(NC(=O)C2CC23CC3)cc1Nc1nccc(CO)c1S(C)(=O)=O` (stereo not shown) [Compound 6] displayed an IC50 of 18.8 nM. This IC50 is about 16-fold higher than that of the compound before.
In the case of `[2H]C([2H])([2H])NC(=O)c1nnc(NC(=O)C2CC2)cc1Nc1ncc(OC(F)(F)F)cc1S(C)(=O)=O` (single isomer, unassigned) [Compound 53], the IC50 stood at 1.9 nM.
As to `[2H]C([2H])([2H])NC(=O)c1nnc(NC(=O)[C@H]2CC23CC3)cc1Nc1ncc(O[C@@H](C)COC)cc1S(C)(=O)=O` [Compound 114], the IC50 worked out at 1 nM.
Take `[2H]C([2H])([2H])NC(=O)c1cnc(NC(=O)C2CC2)cc1Nc1ncc(C2CC2)cc1S(C)(=O)=O` [Compound 77]: half-maximal inhibition (IC50) was put at 1.1 nM.
In turn, `[2H]C([2H])([2H])NC(=O)c1nnc(NC(=O)C2CC2)cc1Nc1ncc(OC[C@H](C)OC)cc1S(C)(=O)=O` [Compound 67] showed an IC50 of 1 nM.
As to `[2H]C([2H])([2H])NC(=O)c1nnc(NC(=O)[C@H]2[C@@H]3COC[C@@H]32)cc1Nc1ncc(OC)cc1S(C)(=O)=O` [Compound 37], the IC50 stood at 10.2 nM.
`[2H]C([2H])([2H])NC(=O)c1nnc(NC(=O)[C@H]2CC23CC3)cc1Nc1ncc(C2CC2)cc1S(C)(=O)=O` [Compound 5] showed a concentration for half-maximal inhibition (IC50) of 1.7 nM. Against the preceding compound, the IC50 is about 6-fold lower.
Consider `[2H]C([2H])([2H])NC(=O)c1nnc(C(F)F)cc1Nc1ncccc1S(C)(=O)=O` [Compound 49], for which the half-inhibitory concentration (IC50) was over 1000 nM.
Compound `[2H]C([2H])([2H])NC(=O)c1nnc(NC(=O)OC)cc1Nc1ncccc1S(C)(=O)=O` [Compound 24] yielded an IC50 of 25.4 nM.
`[2H]C([2H])([2H])NC(=O)c1nnc(Nc2cnc(C(C)(C)O)nc2)cc1Nc1ncc(OC)cc1S(C)(=O)=O` [Compound 50] came in with an IC50 of 9.3 nM.
`[2H]C([2H])([2H])NC(=O)c1nnc(NC(=O)c2ccc(F)cc2)cc1Nc1ncc(OC)cc1S(C)(=O)=O` [Compound 29] came in with an IC50 of 350 nM.
Same read-out and setting: next, `[2H]C([2H])([2H])NC(=O)c1nnc(NC(=O)[C@H]2CC23CC3)cc1Nc1ncc(C(F)(F)F)cc1S(C)(=O)=O` [Compound 32]: 5.3 nM.
For `[2H]C([2H])([2H])NC(=O)c1nnc(NC(=O)[C@H]2CC23CC3)cc1Nc1nc2c(cc1S(C)(=O)=O)CN(C(=O)OCc1ccccc1)CC2` [Compound 39], the IC50 turned out to be 3.2 nM.
As to `[2H]C([2H])([2H])NC(=O)c1nnc(NC(=O)NC2CC2)cc1Nc1ncc(OC)cc1S(C)(=O)=O` [Compound 51], the IC50 is 6.2 nM.
The same measure, in the same setting: as for `[2H]C([2H])([2H])NC(=O)c1nnc(NC(=O)C(C)C)cc1Nc1ncc(OC)cc1S(C)(=O)=O` [Compound 18], the figure is 38.9 nM.
`[2H]C([2H])([2H])NC(=O)c1nnc(NC(=O)[C@H]2CC23CC3)cc1Nc1ncc(OCC)cc1S(C)(=O)=O` [Compound 42] came in with an IC50 of 0.58 nM.
`[2H]C([2H])([2H])NC(=O)c1nnc(NC(=O)[C@H]2CC23CC3)cc1Nc1nc2c(cc1S(C)(=O)=O)CN(C)CC2` [Compound 41] registered an IC50 of 12.7 nM.
Still for that read-out and setting: next, `[2H]C([2H])([2H])NC(=O)c1nnc(NC(=O)[C@H]2CC23CC3)cc1Nc1ncc(OC(F)(F)F)cc1S(C)(=O)=O` [Compound 132]: 6.5 nM.
Compound `[2H]C([2H])([2H])CC(=O)c1nnc(NC(=O)[C@H]2CC23CC3)cc1Nc1ncc(OC)cc1S(C)(=O)=O` [Compound 104] showed an IC50 of 119 nM.
Compound `[2H]C([2H])([2H])NC(=O)c1nnc(NC(=O)C2CC(OC)C2)cc1Nc1ncc(OC)cc1S(C)(=O)=O` (stereo not shown) [Compound 36] gave an IC50 of 5.6 nM.
Same read-out and setting: next, `[2H]C([2H])([2H])NC(=O)c1cnc(NC(=O)C2CC2)cc1Nc1ncc(Cl)cc1S(C)(=O)=O` [Compound 80]: 1.5 nM; `[2H]C([2H])([2H])NC(=O)c1nnc(NC(=O)C2CC2)cc1Nc1ncc(OC(C)C)cc1S(C)(=O)=O` [Compound 64]: 0.6 nM.
